# Assay results from US20240279183A1, “COMPOUNDS AND PHARMACEUTICAL COMPOSITIONS FOR USE IN NEURODEGENERATIVE DISORDERS” (Universiteit Hasselt, priority 2021, published 2024).
# Entries after “also recorded” stand apart in the source; their conditions may differ.
# Key:
# [1] = tested on: Primary mouse oligodendrocyte precursor cells (OPCs); experiment: OPC differentiation (in vitro), O4 and MBP staining; type: cell-based; conditions: for OPC differentiation towards oligodendrocytes: nanomolar ranges
# Method: Primary mouse oligodendrocyte precursor cells (OPCs) were isolated from p0 C57bl6 pups using the shake off method at day 0 (FIG. 1). […] Primary OPCs (150,000 cells/condition) were cultured and stimulated with vehicle (0.1% DMSO) or different concentration of RICE (3 nM, 10 nM, 30 nM, 100 nM, 300 nM, 1000 nM) in 0.1% DMSO. Treatment was repeated on day 2 and day 4, applying a 40% medium change. Cells were fixated at day 6 and stained for O4, a late OPC marker, and MBP, an oligodendrocyte marker. […] The increased expression of O4 declined from 100 nM RICE onwards.
# [2] = tested on: Mouse cerebellar brain slices; experiment: Myelination in lysolecithin-demyelinated brain slices (ex vivo); type: cell-based; conditions: 1 μM, 10 days
# Method: Mouse cerebellar brain slices (350 μm) were made from the cerebellum of p10 C57bl6 pups. After 4 days in culture, slices were demyelinated using 0.5 mg/ml lysolecithin (18 h) and subsequently treated for 10 days with 1 μM RICE (in 0.1% DMSO) (FIG. 2).
# [3] = tested on: Male wild type C57bl6 mice fed cuprizone; experiment: Visual evoked potentials after cuprizone diet (in vivo); set-up: species or system mouse; conditions: 0.1 mg/kg or 0.3 mg/kg subcutaneous twice a day, remyelination phase, compared to vehicle
# Method: Male wild type C57bl6 mice were fed regular chow (n=6) or 0.3% (w/w)cuprizone (n=21) for 6 weeks to […]. Afterwards, cuprizone was removed and recovery was allowed. Two days before ceasing the cuprizone diet, until the end of the experiment, animals received twice a day subcutaneous injections consisting of 0.1% DMSO in 0.5% methylcellulose solution with either vehicle (no cuprizone and vehicle group; n=6 and n=8 respectively), 0.1 mg/kg RICE (n=7) or 0.3 mg/kg RICE (n=6) (FIG. 3). […] After either three or four days after ceasing the cuprizone diet, visual evoked potential were measured to evaluate optic tract and nerve signaling (groups equally divided over testing days). Epidermal VEP was recorded in response to flash stimulation (3 trains of 20 stimuli, 10 us duration, 1 Hz frequency) from both eyes. […] A one-way ANOVA with Kruskall Wallis multiple comparison test was conducted to evaluate statistical significances (*p≤0.05; **p<0.01, ****p<0.001).
# [4] = tested on: young adult C57BL/6J-OlaHsd mice; experiment: Object location task (OLT), 24h intertrial interval; type: in vivo, mouse
# Method: Mice received a subcutaneous injection with vehicle (0.1% DMSO in 2% Tween80 and 0.5% methylcellulose), roflumilast 0.03 mg/kg as a positive control, or RICE01 (0.00003 mg/kg-0.3 mg/kg) 3h after the first learning trial of the 24h interval OLT.
compound,measurement,setting,value
Oc1cc(-c2ccn(CC(O)CN3CCOCC3)n2)ccc1OC(F)F (stereo not shown) [RICE01],MBP expression (oligodendrocyte marker),"[1]; 3-1000 nM, day 6",dose dependently increased
same,O4 expression (late OPC marker),"[1]; 3-1000 nM, treatment day 0, 2, 4, fixated day 6",increased with the lower concentrations
same,concentration from which the increased expression of O4 declined,[1]; day 6,≥ 100 nM
same,concentration of maximal MBP expression,[1]; day 6,30 nM
same,concentration of maximal O4 expression increase,[1]; day 6,10 nM
same,OPC differentiation towards oligodendrocytes,[1],induces OPC differentiation and myelin production
same,OPC differentiation towards oligodendrocytes,[1]; listed as RICE,boosts OPC differentiation towards oligodendrocytes; also recorded: boosted OPC differentiation; also recorded: stimulated the differentiation of oligodendrocytes
same,(re)myelination (myelination index / MBP expression),[2],improved (re)myelination
same,visual evoked potential latency,[3],decreased latency times
same,D2 value versus zero (one-sample t-test),[4]; 0.00003 mg/kg subcutaneous,significantly higher than zero
same,D2 value versus zero (one-sample t-test),[4]; 0.0001 mg/kg subcutaneous,significantly higher than zero
same,d2 index compared with vehicle treatment (Dunnett's),[4]; 0.0001 mg/kg subcutaneous,significantly higher d2 index
same,D2 value versus zero (one-sample t-test),[4]; 0.0003 mg/kg subcutaneous,significantly higher than zero
same,D2 value versus zero (one-sample t-test),[4]; 0.001 mg/kg subcutaneous,significantly higher than zero
same,D2 value versus zero (one-sample t-test),[4]; 0.01 mg/kg subcutaneous,significantly higher than zero
same,D2 value versus zero (one-sample t-test),[4]; 0.03 mg/kg subcutaneous,significantly higher than zero
same,D2 value versus zero (one-sample t-test),[4]; 0.1 mg/kg subcutaneous,significantly higher than zero
same,d2 index compared with vehicle treatment (Dunnett's),[4]; 0.1 mg/kg subcutaneous,significantly higher d2 index
same,discrimination index (D2) in the object location task,"[4]; subcutaneous, 0.00003 mg/kg-0.3 mg/kg, 3h after first learning trial",increases
